The text below walks through data of ChEMBL document CHEMBL3991601, “The target landscape of clinical kinase drugs” (Science, 2017).

Test [1] deals with T1, Serine/threonine-protein kinase LATS1 (Homo sapiens, UniProt O95835).
T1 sequence (O95835 whole entry): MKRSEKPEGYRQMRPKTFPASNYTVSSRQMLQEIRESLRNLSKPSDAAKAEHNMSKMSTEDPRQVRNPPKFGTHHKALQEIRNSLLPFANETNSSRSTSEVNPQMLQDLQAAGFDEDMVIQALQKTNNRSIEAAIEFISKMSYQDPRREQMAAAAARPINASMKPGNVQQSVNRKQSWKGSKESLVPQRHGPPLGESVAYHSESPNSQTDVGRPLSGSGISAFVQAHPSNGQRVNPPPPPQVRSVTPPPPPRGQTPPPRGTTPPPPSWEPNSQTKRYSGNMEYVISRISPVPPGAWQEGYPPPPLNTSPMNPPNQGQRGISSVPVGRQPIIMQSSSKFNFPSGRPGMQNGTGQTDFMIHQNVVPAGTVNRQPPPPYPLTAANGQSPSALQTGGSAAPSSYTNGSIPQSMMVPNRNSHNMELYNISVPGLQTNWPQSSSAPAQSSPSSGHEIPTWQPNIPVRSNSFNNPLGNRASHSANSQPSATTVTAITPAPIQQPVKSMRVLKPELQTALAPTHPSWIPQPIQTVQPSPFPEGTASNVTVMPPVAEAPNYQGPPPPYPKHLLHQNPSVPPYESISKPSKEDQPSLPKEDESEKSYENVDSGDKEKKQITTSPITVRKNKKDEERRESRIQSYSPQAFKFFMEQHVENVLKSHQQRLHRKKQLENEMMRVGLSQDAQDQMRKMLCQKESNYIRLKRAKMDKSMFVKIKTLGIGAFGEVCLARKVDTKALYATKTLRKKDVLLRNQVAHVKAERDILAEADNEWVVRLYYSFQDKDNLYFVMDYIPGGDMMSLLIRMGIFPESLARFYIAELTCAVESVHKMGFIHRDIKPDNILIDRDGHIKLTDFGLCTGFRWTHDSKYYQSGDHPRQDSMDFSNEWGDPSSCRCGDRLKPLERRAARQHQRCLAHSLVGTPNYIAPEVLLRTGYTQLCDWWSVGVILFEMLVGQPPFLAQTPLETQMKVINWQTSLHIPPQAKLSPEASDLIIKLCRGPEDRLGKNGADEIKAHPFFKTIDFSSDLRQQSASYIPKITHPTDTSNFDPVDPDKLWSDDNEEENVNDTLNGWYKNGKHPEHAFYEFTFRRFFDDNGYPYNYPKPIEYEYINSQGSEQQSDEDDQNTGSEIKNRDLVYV

Test [2] has as its target GTP-binding protein 4 (Homo sapiens, UniProt Q9BZE4).
The target in test [3] is GTP-binding nuclear protein Ran (Homo sapiens, UniProt P62826).
For test [4], the target named is T2, Mitogen-activated protein kinase kinase kinase kinase 3 (Homo sapiens, UniProt Q8IVH8).
T2 sequence (Q8IVH8 whole entry): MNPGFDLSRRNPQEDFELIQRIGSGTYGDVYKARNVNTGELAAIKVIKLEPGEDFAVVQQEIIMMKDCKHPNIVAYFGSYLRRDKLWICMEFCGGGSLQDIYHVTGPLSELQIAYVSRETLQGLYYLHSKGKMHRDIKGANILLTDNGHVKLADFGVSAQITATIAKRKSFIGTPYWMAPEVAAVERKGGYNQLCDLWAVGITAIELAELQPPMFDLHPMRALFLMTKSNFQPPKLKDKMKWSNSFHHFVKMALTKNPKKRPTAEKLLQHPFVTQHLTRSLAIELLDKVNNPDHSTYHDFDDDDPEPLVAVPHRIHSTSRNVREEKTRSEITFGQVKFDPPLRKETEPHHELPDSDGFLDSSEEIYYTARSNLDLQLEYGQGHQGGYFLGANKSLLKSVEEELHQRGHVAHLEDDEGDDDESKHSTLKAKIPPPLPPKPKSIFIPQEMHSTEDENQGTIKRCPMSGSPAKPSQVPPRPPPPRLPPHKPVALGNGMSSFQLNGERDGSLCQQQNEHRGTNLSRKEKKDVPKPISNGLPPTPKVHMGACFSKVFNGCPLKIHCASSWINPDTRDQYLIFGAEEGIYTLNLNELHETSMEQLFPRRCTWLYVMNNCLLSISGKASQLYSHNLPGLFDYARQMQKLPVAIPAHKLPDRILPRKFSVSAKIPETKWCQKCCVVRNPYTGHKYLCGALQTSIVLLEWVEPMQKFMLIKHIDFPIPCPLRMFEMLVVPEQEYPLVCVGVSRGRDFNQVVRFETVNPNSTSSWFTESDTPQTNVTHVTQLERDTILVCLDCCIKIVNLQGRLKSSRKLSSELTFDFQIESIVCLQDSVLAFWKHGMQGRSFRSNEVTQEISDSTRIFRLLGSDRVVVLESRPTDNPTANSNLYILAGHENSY

In test [5] the target is Glycogen synthase kinase-3 beta (Homo sapiens, UniProt P49841).
Sequence of Glycogen synthase kinase-3 beta (P49841 whole entry): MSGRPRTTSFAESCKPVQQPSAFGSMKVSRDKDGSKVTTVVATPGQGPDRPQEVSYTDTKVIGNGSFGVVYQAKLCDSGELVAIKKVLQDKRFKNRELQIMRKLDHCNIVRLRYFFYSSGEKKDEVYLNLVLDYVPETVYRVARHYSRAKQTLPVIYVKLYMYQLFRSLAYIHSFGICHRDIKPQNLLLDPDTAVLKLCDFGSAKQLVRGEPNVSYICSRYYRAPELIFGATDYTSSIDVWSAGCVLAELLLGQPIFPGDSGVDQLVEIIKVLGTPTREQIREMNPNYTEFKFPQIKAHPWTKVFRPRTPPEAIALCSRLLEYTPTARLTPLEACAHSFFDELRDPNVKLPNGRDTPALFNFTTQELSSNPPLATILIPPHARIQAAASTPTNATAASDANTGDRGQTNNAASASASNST
Test [6] deals with Mitogen-activated protein kinase 11 (Homo sapiens, UniProt Q15759).
Sequence of Mitogen-activated protein kinase 11 (Q15759 whole entry): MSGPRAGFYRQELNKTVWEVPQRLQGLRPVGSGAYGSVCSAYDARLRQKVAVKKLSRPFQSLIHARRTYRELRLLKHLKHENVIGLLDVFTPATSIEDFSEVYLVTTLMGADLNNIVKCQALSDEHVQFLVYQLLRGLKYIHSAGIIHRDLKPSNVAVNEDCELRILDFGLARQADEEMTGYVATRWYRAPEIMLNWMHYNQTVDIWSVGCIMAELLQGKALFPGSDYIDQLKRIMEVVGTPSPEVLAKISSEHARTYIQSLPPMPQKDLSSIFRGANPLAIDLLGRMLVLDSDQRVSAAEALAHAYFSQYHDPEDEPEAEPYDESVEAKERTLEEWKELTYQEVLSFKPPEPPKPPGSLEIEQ
Test [7] concerns the target Tyrosine-protein kinase CSK (Homo sapiens, UniProt P41240).
The target of test [8] is Mitogen-activated protein kinase 14 (Homo sapiens, UniProt Q16539).
Sequence of Mitogen-activated protein kinase 14 (Q16539 whole entry): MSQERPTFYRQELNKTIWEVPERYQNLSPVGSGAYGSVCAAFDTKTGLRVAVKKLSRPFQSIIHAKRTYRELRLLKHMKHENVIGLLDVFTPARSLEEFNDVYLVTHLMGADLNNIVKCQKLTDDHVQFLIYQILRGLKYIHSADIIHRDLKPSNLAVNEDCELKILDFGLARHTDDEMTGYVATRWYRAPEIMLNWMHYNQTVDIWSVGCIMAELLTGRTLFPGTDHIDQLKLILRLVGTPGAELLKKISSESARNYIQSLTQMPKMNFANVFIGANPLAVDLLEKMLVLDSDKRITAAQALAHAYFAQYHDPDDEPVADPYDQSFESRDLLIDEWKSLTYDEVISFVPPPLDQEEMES

Molecules are shown by their SMILES. Calls of active or inactive are those of the source. Cut-off read from the data, not from the text of the source, for most assays here: actives have a measured Kd and inactives only a lower limit.
Note: in the data inactive means no Kd found up to 30 µM.

Sequence of Tyrosine-protein kinase CSK (P41240 whole entry): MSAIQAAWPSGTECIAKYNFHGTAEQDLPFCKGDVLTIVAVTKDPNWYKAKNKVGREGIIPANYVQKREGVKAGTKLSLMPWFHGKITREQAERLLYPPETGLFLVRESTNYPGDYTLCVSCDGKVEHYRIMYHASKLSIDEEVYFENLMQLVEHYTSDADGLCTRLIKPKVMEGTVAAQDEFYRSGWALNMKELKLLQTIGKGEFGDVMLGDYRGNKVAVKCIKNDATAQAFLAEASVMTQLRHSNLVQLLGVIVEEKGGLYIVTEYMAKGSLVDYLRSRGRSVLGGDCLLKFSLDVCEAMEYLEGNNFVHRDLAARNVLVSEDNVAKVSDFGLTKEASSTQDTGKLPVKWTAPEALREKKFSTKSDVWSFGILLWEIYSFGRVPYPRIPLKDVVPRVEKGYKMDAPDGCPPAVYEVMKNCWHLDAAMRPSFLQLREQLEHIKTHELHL

`COc1cc2ncnc(Nc3ccc(F)c(Cl)c3)c2cc1NC(=O)/C=C/CN1CCCCC1` [DACOMITINIB ANHYDROUS]: the Kd in test [1], in test [2], in test [3], in test [4], in test [5] and in test [6] was > 30 µM (inactive) each time. Further, the Kd in test [7] and in test [8] was > 30 µM (inactive) in each case.

With `O=C(NOC[C@H](O)CO)c1ccc(F)c(F)c1Nc1ccc(I)cc1F` [MIRDAMETINIB], the Kd in test [2], in test [3], in test [4], in test [5], in test [6] and in test [7] was > 30 µM (inactive) throughout.

For the compound `COc1cc2nccc(Oc3ccc(NC(=O)C4(C(=O)Nc5ccc(F)cc5)CC4)cc3)c2cc1OC` [CABOZANTINIB], the Kd in test [1], in test [2], in test [3], in test [4], in test [5] and in test [6] was > 30 µM (inactive) in each case. The Kd in test [7] and in test [8] was > 30 µM (inactive) each time.

In the case of `C=CCN(/C=C1/C(=O)O[C@H](COC)[C@@]2(C)C1=C(O)C(=O)C1=C2[C@H](OC(C)=O)C[C@]2(C)C(=O)CC[C@@H]12)CC=C` [SONOLISIB], the Kd in test [1], in test [2], in test [3], in test [4], in test [5] and in test [6] was > 30 µM (inactive) throughout. Besides, the Kd in test [7] and in test [8] was > 30 µM (inactive) in each case.

`COc1cc2c(N3CCN(C(=O)Nc4ccc(OC(C)C)cc4)CC3)ncnc2cc1OCCCN1CCCCC1` [TANDUTINIB]: in test [2], the Kd (as a rule, a measure of binding affinity in units of concentration) is > 30 µM (inactive).

For `COc1cccc2cc(-c3nc([C@H]4CC[C@H](C(=O)O)CC4)n4ncnc(N)c34)[nH]c12` [OSI-027], the Kd in test [1], in test [2], in test [3], in test [4], in test [5] and in test [6] was > 30 µM (inactive) in each case. The Kd in test [7] and in test [8] was > 30 µM (inactive) each time.

For `Cn1cnc2c(F)c(Nc3ccc(Br)cc3Cl)c(C(=O)NOCCO)cc21` [SELUMETINIB], the Kd in test [2] and in test [3] was > 30 µM (inactive) throughout.

As to `COc1ccc(-c2ccc3ncc4c(c3c2)n(-c2ccc(N3CCNCC3)c(C(F)(F)F)c2)c(=O)n4C)cn1` [BGT-226 FREE BASE], the Kd in test [1], in test [2], in test [3], in test [4], in test [5] and in test [6] was > 30 µM (inactive) each time. The Kd in test [7] and in test [8] was > 30 µM (inactive) throughout.

As for `Cc1cc(C(=O)Nc2cc(Oc3ccc4nc(NC(=O)C5CC5)cn4n3)ccc2C)n(C)n1` [TAK-593], the Kd in test [1], in test [2], in test [3], in test [4], in test [5] and in test [6] was > 30 µM (inactive) in each case. Besides, the Kd in test [7] and in test [8] was > 30 µM (inactive) throughout.

Turning to `CC1(COc2ccc3c(c2)ncn3-c2ccc3cccc(N4CCC(N)CC4)c3n2)COC1` [CRENOLANIB], the Kd is 2.77 µM (active) in test [1]; > 30 µM (inactive) in test [2]; > 30 µM (inactive) in test [3]; 0.406 µM (active) in test [4]; > 30 µM (inactive) in test [5]; > 30 µM (inactive) in test [6]. Moreover, the Kd in test [7] and in test [8] was > 30 µM (inactive) throughout.

`CN(C)C/C=C/C(=O)Nc1cc2c(Nc3ccc(F)c(Cl)c3)ncnc2cc1O[C@H]1CCOC1` [AFATINIB]: the Kd in test [2] and in test [3] was > 30 µM (inactive) each time.

For `CN(c1ncccc1CNc1nc(Nc2ccc3c(c2)CC(=O)N3)ncc1C(F)(F)F)S(C)(=O)=O` [PF-00562271], the Kd in test [1], in test [2], in test [3], in test [4], in test [6] and in test [7] was > 30 µM (inactive) each time.

Turning to `c1cc(OCCN2CCCCC2)cc(-c2n[nH]c3ccc(-c4nc[nH]n4)cc23)c1` [CC-401], the Kd in test [1], in test [2], in test [3], in test [4], in test [6] and in test [7] was > 30 µM (inactive) throughout. The Kd in test [8] was > 30 µM (inactive).

In the case of `CC1(C)CNc2cc(NC(=O)c3cccnc3NCc3ccncc3)ccc21` [MOTESANIB], the Kd in test [2] and in test [3] was > 30 µM (inactive) throughout.

`O=S(=O)(c1cccc2cnccc12)N1CCCNCC1` [FASUDIL]: the Kd in test [2], in test [4], in test [6] and in test [7] was > 30 µM (inactive) throughout.

`N#CCNC(=O)c1ccc(-c2ccnc(Nc3ccc(N4CCOCC4)cc3)n2)cc1` [MOMELOTINIB]: the Kd in test [2], in test [3], in test [7] and in test [8] was > 30 µM (inactive) in each case.

As to `CCc1nc(C(N)=O)c(Nc2ccc(N3CCC(N4CCN(C)CC4)CC3)c(OC)c2)nc1NC1CCOCC1` [GILTERITINIB], the Kd is 0.221 µM (active) in test [1]; > 30 µM (inactive) in test [2]; 0.759 µM in test [3]; > 30 µM (inactive) in test [5]; > 30 µM (inactive) in test [6]; > 30 µM (inactive) in test [7]. The Kd in test [8] is > 30 µM (inactive).

In the case of `C[C@]1(O)C[C@@H](c2nc(-c3ccc4ccc(-c5ccccc5)nc4c3)c3c(N)nccn32)C1` [LINSITINIB], the Kd was > 30 µM (inactive) in test [2]; > 30 µM (inactive) in test [3]; 15.4 µM (active) in test [4]; 0.01 µM in test [6]; > 30 µM (inactive) in test [7].
